Data as given in patent US7722893B2, “Use of substitute 2,4-bis (alkylamino) pyrimidines or quinzolines as antimicrobials” (Ciba Specialty Chemicals Corporation, priority 2003, dated 2010).
Each block holds one molecule with its values, some of them ahead of it.

Experiments:
[1] = system: P. gingivalis ATCC 3277; experiment: MIC of a broadened organism spectrum: oral organisms; type: cell-based, Porphyromonas gingivalis; conditions: 7-10 days at 37° C anaerobic
Description: (§1) Determination of the Minimum Inhibiting Concentration MIC (ppm) of a Broadened Organism Spectrum: Oral Organisms
(§2) • Medium: thioglycolate bouillon with hemin and menadione Columbia bouillon with hemin and menadione for P. gingivalis and P. nigrescens • Dilution medium: the appropriate amount of the substances was pipetted directly into the medium. • Test organisms: Actinobacillus actinomycetemcomitans ATCC 43718 • Streptococcus gordonil ATCC 10558 • Streptococcus mutans ATCC 33402 • Actinomyces viscosus ATCC 43146 • Fusobacterium nucleatum subsp. polymorphum ATCC 10953 • Porphyromonas gingivalis ATCC 33277 • Prevotella nigrescens ATCC 33563 • Incubation: 7-10 days at 37° C anaerobic, or 24 hours aerobic with 10% CO2 for Streptococci and A. actinomycetemcomitans • Test solution: Stock solutions of all the test substances in ethanol at 1500 ppm (w/w) are used. Test Principle:
(§3) Bacteria are removed from blood agar plates using cotton wool buds and a suitable optical density (McFarland 0.5) is adjusted in an appropriate medium; that solution is used undiluted for F. nucleatum and P. nigrescens, and in a dilution of 1:20 for the other strains. 0.1 ml of bacterial culture is added per 2 ml of active ingredient solution and incubation is carried out as described above.

[2] = system: Escherichia coli NCTC 8196; experiment: MIC of a broadened organism spectrum (agar); type: cell-based
Description: (§4) Determination of the Minimum Inhibiting Concentration MIC [ppm] of a Broadened Organism Spectrum
(§5) • Medium: Casein/soybean flour peptone agar (Merck) • *Sabouraud 4% glucose agar (Merck) • Dilution medium: sterile 0.85% NaCl solution • Test organisms: Staphylococcus aureus ATCC 6853 and 9144 • Staphylococcus epidermidis ATCC 12228 • C. xerosis ATCC 373 ** • C. minutissimum ATCC 23348 • Proplonibacterium acnes ATCC 6919 • Escherichia coli ATCC 10536 and NCTC 8196 • Proteus vulgaris ATCC 6896 • Klebsiella pneumoniae ATCC 4352 • Salmonella choleraesuis ATCC 9184 • Pseudomonas aeruginosa ATCC 15442 • *Candida albicans ATCC 10231 • *Aspergillus niger ATCC 6275 • Incubation: 24 hours at 37° C. • *3 days at 28° C. • Test solution: 1% stock solutions of all the test substances in a suitable solvent are prepared and diluted in serial dilutions (1:10, 1:100 and 1:1000 dilution), where possible diluted to such an extent that the end concentrations in agar are from 500 ppm to 10 ppm. Test principle:
(§6) 0.3 ml of the dilution stage in question is mixed with 15 ml of still-liquid nutrient medium.
(§7) When the nutrient substrate has solidified, 10 μl portions of a suitable organism dilution of the test strains in 0.85% NaCl solution are spotted onto the agar medium: […]

[3] = system: Propionibacterium acnes ATCC 6919; experiment: MIC of a broadened organism spectrum (agar); type: cell-based; conditions: 3 days incubation under anaerobic conditions
Description: as §4, §5, §6, §7

[4] = system: Aspergillus niger ATCC 6275; experiment: MIC of a broadened organism spectrum (agar); type: cell-based; conditions: Sabouraud 4% glucose agar, 3 days at 28° C.
Description: as §4, §5, §6, §7

[5] = system: Pseudomonas aeruginosa ATCC 15442; experiment: MIC of a broadened organism spectrum (agar); type: cell-based
Description: as §4, §5, §6, §7

[6] = system: Klebsiella pneumoniae ATCC 4352; experiment: MIC of a broadened organism spectrum (agar); type: cell-based
Description: as §4, §5, §6, §7

[7] = system: Staphylococcus aureus ATCC 6538; experiment: MIC of a broadened organism spectrum (agar); type: cell-based
Description: as §4, §5, §6, §7

[8] = system: Staphylococcus epidermidis ATCC 12228; experiment: MIC of a broadened organism spectrum (agar); type: cell-based
Description: as §4, §5, §6, §7

[9] = system: Staphylococcus aureus ATCC 9144; experiment: MIC of a broadened organism spectrum (agar); type: cell-based
Description: as §4, §5, §6, §7

[10] = system: C. xerosis ATCC 373; experiment: MIC of a broadened organism spectrum (agar); type: cell-based; conditions: 3 days incubation
Description: as §4, §5, §6, §7

[11] = system: Salmonella choleraesuis ATCC 9184; experiment: MIC of a broadened organism spectrum (agar); type: cell-based; conditions: 24 hours at 37° C.
Description: as §4, §5, §6, §7

[12] = system: Escherichia coli ATCC 10536; experiment: MIC of a broadened organism spectrum (agar); type: cell-based
Description: as §4, §5, §6, §7

[13] = system: C. minutissimum ATCC 23348; experiment: MIC of a broadened organism spectrum (agar); type: cell-based; conditions: 3 days incubation (Table 3a)
Description: as §4, §5, §6, §7

[14] = system: Proteus vulgaris ATCC 6896; experiment: MIC of a broadened organism spectrum (agar); type: cell-based
Description: as §4, §5, §6, §7

[15] = system: Candida albicans ATCC 10231; experiment: MIC of a broadened organism spectrum (agar); type: cell-based; conditions: Sabouraud 4% glucose agar, 3 days at 28° C.
Description: as §4, §5, §6, §7

[16] = system: S. gordonii ATCC 10558; experiment: MIC of a broadened organism spectrum: oral organisms; type: cell-based, Streptococcus gordonil
Description: as §1, §2, §3

[17] = system: Actinobacillus actinomycetemcomitans ATCC 43718; experiment: as above; type: cell-based; conditions: A. actinomycetemcomitans ATCC 43718, 24 hours aerobic with 10% CO2
Description: as §1, §2, §3

[18] = system: Actinomyces viscosus ATCC 43146; experiment: as above; type: cell-based; conditions: A. viscosus ATCC 43146, 7-10 days at 37° C anaerobic
Description: as §1, §2, §3

[19] = system: Prevotella nigrescens ATCC 33563; experiment: as above; type: cell-based; conditions: P. nigrescens ATCC 33563, Columbia bouillon, 7-10 days at 37° C anaerobic
Description: as §1, §2, §3

[20] = system: Fusobacterium nucleatum subsp. polymorphum ATCC 10953; experiment: as above; type: cell-based; conditions: F. nucleatum subsp. polymorphum ATCC 10953, 7-10 days at 37° C anaerobic
Description: as §1, §2, §3

[21] = system: Streptococcus mutans ATCC 33402; experiment: as above; type: cell-based; conditions: S. mutans ATCC 33402, 24 hours aerobic with 10% CO2
Description: as §1, §2, §3

SMILES: CCCCCCCCNc1cc(C)nc(NCCCCCCCC)n1 [PY5, N,N′-bis(2,4-dioctylamino)-6-methylpyrimidine]
minimum inhibiting concentration MIC, oral organisms ([1]; Columbia bouillon): 7.5 ppm | minimum inhibiting concentration MIC ([2]; 24 hours at 37° C.): >1000 ppm | minimum inhibiting concentration MIC [3]: 3.91 ppm | minimum inhibiting concentration MIC [4]: >1000 ppm | minimum inhibiting concentration MIC ([5]; 24 hours at 37° C.): >1000 ppm | minimum inhibiting concentration MIC ([6]; 24 hours at 37° C.): 250 ppm | minimum inhibiting concentration MIC ([7]; 24 hours at 37° C.): 3.91 ppm | minimum inhibiting concentration MIC ([8]; 24 hours at 37° C.): 3.91 ppm | minimum inhibiting concentration MIC ([9]; 24 hours at 37° C.): 3.91 ppm | minimum inhibiting concentration MIC [10]: 7.81 ppm | minimum inhibiting concentration MIC [11]: >1000 ppm | minimum inhibiting concentration MIC ([12]; 24 hours at 37° C.): >1000 ppm | minimum inhibiting concentration MIC [13]: 3.91 ppm | minimum inhibiting concentration MIC ([14]; 24 hours at 37° C.): >1000 ppm | minimum inhibiting concentration MIC [15]: >1000 ppm | minimum inhibiting concentration MIC, oral organisms ([16]; 24 hours aerobic with 10% CO2): 15 ppm | minimum inhibiting concentration MIC, oral organisms [17]: >15 ppm | minimum inhibiting concentration MIC, oral organisms [18]: 3.75 ppm | minimum inhibiting concentration MIC, oral organisms [19]: 15 ppm | minimum inhibiting concentration MIC, oral organisms [20]: >15 ppm | minimum inhibiting concentration MIC, oral organisms [21]: 3.75 ppm

MIC ([1]; Porphyromonas gingivalis, ATCC3277, Columbia bouillon, read-out: minimum inhibiting concentration MIC, oral organisms): 15 µg/mL | MIC ([2]; NCTC8196, 24 hours at 37° C., read-out: minimum inhibiting concentration MIC): 31.2 µg/mL | MIC ([3]; Cutibacterium acnes, ATCC6919, 72 h, read-out: minimum inhibiting concentration MIC): 31.2 µg/mL | MIC ([4]; ATCC6275, 72 h, read-out: minimum inhibiting concentration MIC): 250 µg/mL | MIC ([5]; ATCC15442, 24 hours at 37° C., read-out: minimum inhibiting concentration MIC): > 500 µg/mL | MIC ([6]; ATCC4352, 24 hours at 37° C., read-out: minimum inhibiting concentration MIC): 15.6 µg/mL | MIC ([7]; ATCC6538, 24 hours at 37° C., read-out: minimum inhibiting concentration MIC): 31.2 µg/mL | MIC ([8]; ATCC12228, 24 hours at 37° C., read-out: minimum inhibiting concentration MIC): 31.2 µg/mL | MIC ([9]; ATCC9144, 24 hours at 37° C., read-out: minimum inhibiting concentration MIC): 31.2 µg/mL | MIC ([10]; Corynebacterium xerosis, ATCC373, 72 h, read-out: minimum inhibiting concentration MIC): 7.8 µg/mL | MIC ([12]; ATCC10536, 24 hours at 37° C., read-out: minimum inhibiting concentration MIC): 62.5 µg/mL | MIC ([13]; Corynebacterium minutissimum, ATCC23348, 72 h, read-out: minimum inhibiting concentration MIC): 15.6 µg/mL | MIC ([14]; ATCC6896, 24 hours at 37° C., read-out: minimum inhibiting concentration MIC): > 500 µg/mL | MIC ([15]; ATCC10231, 72 h, read-out: minimum inhibiting concentration MIC): 250 µg/mL | MIC ([16]; Streptococcus gordonii, ATCC10558, 24 hours aerobic with 10% CO2, read-out: minimum inhibiting concentration MIC, oral organisms): > 15 µg/mL | MIC ([17]; Aggregatibacter actinomycetemcomitans, ATCC43718, read-out: minimum inhibiting concentration MIC, oral organisms): > 15 µg/mL | MIC ([18]; Actinomyces viscosus, ATCC43146, read-out: minimum inhibiting concentration MIC, oral organisms): 3.75 µg/mL | MIC ([19]; Prevotella nigrescens, ATCC33563, read-out: minimum inhibiting concentration MIC, oral organisms): 15 µg/mL | MIC ([20]; Fusobacterium nucleatum, ATCC10953, read-out: minimum inhibiting concentration MIC, oral organisms): 15 µg/mL | MIC ([21]; Streptococcus mutans, ATCC33402, read-out: minimum inhibiting concentration MIC, oral organisms): > 15 µg/mL
SMILES: Cc1cc(NCc2ccccc2)nc(NCc2ccccc2)n1 [PY8, N,N′-Bis(2,4-dibenzylamino)-6-methylpyrimidine]
MIC ([11]; Salmonella enterica, read-out: minimum inhibiting concentration MIC): 62.5 µg/mL
